Key:
bedstraw = assay: Test B pre/postemergence bedstraw; type: in vivo, Galium aparine
Summary of the method: (§1)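 Response is a visual 0-to-10 score relative to untreated plants, where 0 means no effect and 10 means complete control, taken twelve to sixteen days after application. Treatments went onto soil at planting and onto foliage of 1- to 4-leaf plants, using a surfactant-containing non-phytotoxic solvent.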

blackgrass = assay: Test B pre/postemergence blackgrass; type: in vivo, Alopecurus myosuroides
Summary of the method: as §1

surinam grass = assay: Test B pre/postemergence surinam grass; type: in vivo, Brachiaria decumbens
Summary of the method: as §1

corn = assay: Test B pre/postemergence corn; type: in vivo, Zea mays
Summary of the method: as §1

crabgrass = assay: Test B pre/postemergence crabgrass; type: in vivo, Digitaria sanguinalis
Summary of the method: as §1

pigweed = assay: Test B pre/postemergence pigweed; type: in vivo, Amaranthus retroflexus
Summary of the method: as §1

rape = assay: Test B pre/postemergence rape; type: in vivo, Brassica napus
Summary of the method: as §1

soybean = assay: Test B pre/postemergence soybean; type: in vivo, Glycine max
Summary of the method: as §1

sugar beet = assay: Test B pre/postemergence sugar beet; type: in vivo, Beta vulgaris
Summary of the method: as §1

velvetleaf = assay: Test B pre/postemergence velvetleaf; type: in vivo, Abutilon theophrasti
Summary of the method: as §1

wheat = assay: Test B pre/postemergence wheat; type: in vivo, Triticum aestivum
Summary of the method: as §1

wild oat = assay: Test B pre/postemergence wild oat; type: in vivo, Avena fatua
Summary of the method: as §1

purple nutsedge = assay: Test B pre/postemergence purple nutsedge; type: in vivo, Cyperus rotundus
Summary of the method: as §1

rice = assay: Test B flood test rice; type: in vivo, Oryza sativa
Summary of the method: (§2)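 Plants were grown to the 2-leaf stage before treatment with test chemical, then held in a greenhouse for twelve to sixteen days. Injury was visually rated against untreated controls on a 0–10 scale, where 0 is no effect and 10 is complete control.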

smallflower flatsedge = assay: Test B flood test smallflower flatsedge; type: in vivo, Cyperus difformis
Summary of the method: as §2

duck salad = assay: Test B flood test duck salad; type: in vivo, Heteranthera limosa
Summary of the method: as §2

[1] = Postemergence, Rate 62 g/ha, scale 0 to 10, 0 is no effect, 10 is complete control
[2] = Postemergence, Rate 250 g/ha, scale 0 to 10, 0 no effect, 10 complete control
[3] = Preemergence, Rate 62 g/ha, scale 0 to 10, 0 is no effect, 10 is complete control
[4] = Preemergence, Rate 125 g/ha, scale 0 to 10 (0 no effect, 10 complete control)
[5] = Preemergence, Rate 250 g/ha, scale of 0 to 10 where 0 is no effect and 10 is complete control
[6] = Preemergence, Rate 500 g/ha, scale 0 (no effect) to 10 (complete control)
[7] = Rate 125 g/ha, Postemergence, scale 0 to 10, 0 no effect, 10 complete control
[8] = Rate 500 g/ha, Postemergence, 0 to 10 scale (0 no effect, 10 complete control)
[9] = Rate 125 g/ha, Postemergence section (flood test species), scale 0 to 10, 0 no effect, 10 complete control
[10] = Rate 125 g/ha, Pre-emergence, flood test species, scale 0 to 10 where 0 is no effect and 10 is complete control
[11] = Rate 250 g/ha, headed Pre-emergence (flood test species), scale 0 to 10 (0 no effect, 10 complete control)
[12] = Rate 500 g/ha, Postemergence section of Table B, 0 to 10 scale (0 no effect, 10 complete control)
[13] = Rate 500 g/ha, headed Pre-emergence (flood test species), scale 0 to 10 (0 no effect, 10 complete control)
[14] = Rate 1000 g/ha, Pre-emergence (as headed), scale 0 to 10
[15] = flood test, listed under Postemergence, Rate 250 g/ha, scale 0 to 10, 0 no effect, 10 complete control

COc1ccc(-n2c(=O)on(C(=O)N(c3ccc(F)cc3)C(C)C)c2=O)c(C)c1 [Compound 35]
Bedstraw plant response rating (bedstraw; [1]): 0
Bedstraw plant response rating (bedstraw; [2]): 3
Plant response rating, Bedstraw (bedstraw; [3]): 0
Plant response rating, Bedstraw (bedstraw; [4]): 0
Plant response rating, Bedstraw (bedstraw; [5]): 0
Bedstraw plant response rating (bedstraw; [6]): 0
Bedstraw plant response rating (bedstraw; [7]): 2
Bedstraw plant response rating (bedstraw; [8]): 6
Blackgrass plant response rating (blackgrass; [1]): 0
Blackgrass plant response rating (blackgrass; [2]): 1
Plant response rating, Blackgrass (blackgrass; [3]): 0
Plant response rating, Blackgrass (blackgrass; [4]): 2
Plant response rating, Blackgrass (blackgrass; [5]): 2
Blackgrass plant response rating (blackgrass; [6]): 3
Blackgrass plant response rating (blackgrass; [7]): 0
Blackgrass plant response rating (blackgrass; [8]): 7
B. signalgrass plant response rating (surinam grass; [1]): 0
B. signalgrass plant response rating (surinam grass; [2]): 0
Plant response rating, B. signalgrass (surinam grass; [3]): 0
Plant response rating, B. signalgrass (surinam grass; [4]): 0
Plant response rating, B. signalgrass (surinam grass; [5]): 3
B. signalgrass plant response rating (surinam grass; [6]): 7
B. signalgrass plant response rating (surinam grass; [7]): 0
B. signalgrass plant response rating (surinam grass; [8]): 0
Corn plant response rating (corn; [1]): 0
Corn plant response rating (corn; [2]): 0
Plant response rating, Corn (corn; [3]): 0
Plant response rating, Corn (corn; [4]): 0
Plant response rating, Corn (corn; [5]): 0
Corn plant response rating (corn; [6]): 0
Corn plant response rating (corn; [7]): 0
Corn plant response rating (corn; [8]): 0
Crabgrass plant response rating (crabgrass; [1]): 0
Crabgrass plant response rating (crabgrass; [2]): 1
Plant response rating, Crabgrass (crabgrass; [3]): 3
Plant response rating, Crabgrass (crabgrass; [4]): 3
Plant response rating, Crabgrass (crabgrass; [5]): 6
Crabgrass plant response rating (crabgrass; [6]): 10
Crabgrass plant response rating (crabgrass; [7]): 0
Crabgrass plant response rating (crabgrass; [8]): 7
Redroot pigweed plant response rating (pigweed; [1]): 0
Redroot pigweed plant response rating (pigweed; [2]): 9
Plant response rating, Redroot pigweed (pigweed; [3]): 0
Plant response rating, Redroot pigweed (pigweed; [4]): 0
Plant response rating, Redroot pigweed (pigweed; [5]): 0
Redroot pigweed plant response rating (pigweed; [6]): 0
Redroot pigweed plant response rating (pigweed; [7]): 7
Redroot pigweed plant response rating (pigweed; [8]): 9
Rape plant response rating (rape; [1]): 0
Rape plant response rating (rape; [2]): 0
Plant response rating, Rape (rape; [3]): 0
Plant response rating, Rape (rape; [4]): 0
Plant response rating, Rape (rape; [5]): 0
Rape plant response rating (rape; [6]): 0
Rape plant response rating (rape; [7]): 0
Rape plant response rating (rape; [8]): 2
Soybean plant response rating (soybean; [1]): 1
Soybean plant response rating (soybean; [2]): 1
Plant response rating, Soybean (soybean; [3]): 0
Plant response rating, Soybean (soybean; [4]): 0
Plant response rating, Soybean (soybean; [5]): 0
Soybean plant response rating (soybean; [6]): 0
Soybean plant response rating (soybean; [7]): 1
Sugarbeets plant response rating (sugar beet; [1]): 0
Plant response rating, Sugarbeets (sugar beet; [3]): 0
Plant response rating, Sugarbeets (sugar beet; [4]): 0
Plant response rating, Sugarbeets (sugar beet; [5]): 0
Sugarbeets plant response rating (sugar beet; [6]): 0
Sugarbeets plant response rating (sugar beet; [7]): 3
Velvetleaf plant response rating (velvetleaf; [1]): 0
Velvetleaf plant response rating (velvetleaf; [2]): 0
Plant response rating, Velvetleaf (velvetleaf; [3]): 0
Plant response rating, Velvetleaf (velvetleaf; [4]): 0
Plant response rating, Velvetleaf (velvetleaf; [5]): 0
Velvetleaf plant response rating (velvetleaf; [6]): 0
Velvetleaf plant response rating (velvetleaf; [7]): 0
Wheat plant response rating (wheat; [1]): 0
Wheat plant response rating (wheat; [2]): 0
Plant response rating, Wheat (wheat; [3]): 0
Plant response rating, Wheat (wheat; [4]): 0
Plant response rating, Wheat (wheat; [5]): 0
Wheat plant response rating (wheat; [6]): 0
Wheat plant response rating (wheat; [7]): 0
Wild oats plant response rating (wild oat; [1]): 0
Wild oats plant response rating (wild oat; [2]): 0
Plant response rating, Wild oats (wild oat; [4]): 0
Plant response rating, Wild oats (wild oat; [5]): 2
Wild oats plant response rating (wild oat; [6]): 6
Wild oats plant response rating (wild oat; [7]): 0
Nutsedge plant response rating (purple nutsedge; [1]): 0
Nutsedge plant response rating (purple nutsedge; [2]): 0
Plant response rating, Nutsedge (purple nutsedge; [3]): 0
Plant response rating, Nutsedge (purple nutsedge; [4]): 0
Plant response rating, Nutsedge (purple nutsedge; [5]): 0
Nutsedge plant response rating (purple nutsedge; [6]): 0
Nutsedge plant response rating (purple nutsedge; [7]): 0
Nutsedge plant response rating (purple nutsedge; [8]): 0
Rice plant response rating (rice; [1]): 0
Rice plant response rating (rice; [9]): 0
Rice plant response rating (rice; [10]): 0
Rice plant response rating (rice; [11]): 0
Rice plant response rating (rice; [12]): 0
Plant response rating, Rice (rice; [13]): 0
Rice plant response rating (rice; [14]): 0
Rice plant response rating (rice; [15]): 0
S. Flatsedge plant response rating (smallflower flatsedge; [1]): 0
S. Flatsedge plant response rating (smallflower flatsedge; Pre-emergence, Rate 1000 g/ha, scale 0 to 10 (0 no effect, 10 complete control)): 0
S. Flatsedge plant response rating (smallflower flatsedge; [9]): 0
S. Flatsedge plant response rating (smallflower flatsedge; [10]): 0
S. Flatsedge plant response rating (smallflower flatsedge; [11]): 0
Plant response rating, S. Flatsedge (smallflower flatsedge; [13]): 0
S. Flatsedge plant response rating (smallflower flatsedge; [15]): 0
Ducksalad plant response rating (duck salad; [1]): 0
Ducksalad plant response rating (duck salad; [9]): 0
Ducksalad plant response rating (duck salad; [10]): 0
Ducksalad plant response rating (duck salad; [11]): 0
Ducksalad plant response rating (duck salad; [12]): 0
Plant response rating, Ducksalad (duck salad; [13]): 0
Ducksalad plant response rating (duck salad; [14]): 0
Ducksalad plant response rating (duck salad; [15]): 0

Reference: US6737383B1, “Herbicidal oxadiazolidines” (priority 1999, dated 2004)
